Patent publication US20140343128A1, “Combination of a phosphoinositide 3-kinase inhibitor and a modulator of the Janus Kinase 2 - Signal Transducer and Activator of Transcription 5 pathway” (NOVARTIS FORSCHUNGSSTIFTUNG, ZWEIGNIEDERLASSUNG FRIEDRICH …, priority 2011, published 2014)

Assays:
pJAK2/JAK2 [1] = experiment: pJAK2/JAK2 ELISA in BEZ-treated human breast cancer cell lines; type: cell-based; conditions: 300 nM BEZ, 8 h, relative to DMSO
pJAK2/JAK2 [2] = experiment: pJAK2/JAK2 ELISA in BEZ-treated Balb/c mouse breast cancer lines; type: cell-based; conditions: 300 nM BEZ, 8 h, relative to DMSO
pSTAT5/STAT5 [3] = experiment: pSTAT5/STAT5 immunoblotting with densitometry in BEZ-treated human breast cancer cell lines; type: cell-based; conditions: 300 nM BEZ, 8 h, relative to DMSO
pSTAT5/STAT5 [4] = experiment: pSTAT5/STAT5 immunoblotting with densitometry in BEZ-treated Balb/c mouse breast cancer lines; type: cell-based; conditions: 300 nM BEZ, 8 h, relative to DMSO
IL-8 secretion = IL-8 secretion ELISA in BEZ-treated breast cancer cell lines; type: cell-based, human; conditions: 300 nM BEZ; for IL8 BEZ vs. DMSO: 20 h, relative to DMSO
pAKT, pS6 = experiment: Time-course immunoblots of target inhibition (pAKT, pS6) in breast cancer lines; type: cell-based, human, mouse; conditions: MDA 468, MDA 231 LM2 and 4T-1 lines; single dose; up to 20 hours after treatment
pJAK2, pSTAT5, pSTAT3 = experiment: Time-course immunoblots/ELISA of JAK2/STAT crosstalk in breast cancer lines in vitro; type: cell-based, human, mouse; conditions: for pJAK2 and pSTAT5 (JAK2/STAT5 activation) in vitro: after 4 hours-8 hours of treatment; for Start of JAK2 activation (pJAK2/pSTAT5 upregulation) after adding the compound: single PI3K or mTOR inhibition, in vitro time course
pJAK2, pSTAT5 = experiment: pJAK2/pSTAT5 in xenografts of treated mice; design: species or system SCID/beige mice; conditions: 30 mg/kg once, after 8 hours of treatment
Excerpt: (§1) Animal experiments. SCID/beige, SCID/NOD and Balb/c mice (Jackson Labs) were maintained under specific pathogen-free conditions and were used in compliance with protocols approved by the Institutional Animal Care and Use Committees of the FMI, which conform to institutional and national regulatory standards on experimental animal usage. For orthotopical engraftment of breast cancer cell lines, 1×10^6 MDA-MB-468, 1×10^6 MDA-MB-231-LM2 and 0.5×10^6 […] or 4T-1-GFP cells were suspended in a 100-μl mixture of Basement Membrane Matrix Phenol Red-free (BD Biosciences) and PBS 1:1 and injected into the mammary gland 4 or between mammary glands 2 and 3. Primary patient breast tumors were cut into 1 mm×1 mm pieces and transplanted into mammary gland 4. Tumor-bearing mice were randomized based on tumor volume prior to the initiation of treatment, which was initiated when average tumor volume was at least 100 mm^3. […] Tumors were measured every 3 to 4 days with vernier calipers, and tumor volumes were calculated by the formula 0.5×(larger diameter)×(smaller diameter)^2. End point tumor sizes were analyzed for synergism using the formula AB/C<A/C×B/C, where C=tumor volume VHC, A=tumor volume compound 1, B=tumor volume compound 2, AB=tumor volume combination (Clarke, 1997).

IL-8 = IL-8 levels in tumors and plasma of treated mice; type: in vivo; conditions: mice treated as in FIG. 5
Excerpt: as §1

[5] = system: JAK2/STAT5 and IL-8 secretion; experiment: JAK2/STAT5 and IL-8 in primary human triple-negative breast tumor xenografts; type: in vivo, human tumors in immunodeficient mice; conditions: 30 mg/kg BEZ, 3-4 days, xenografts in immunodeficient mice
Excerpt: as §1

[6] = system: MDA231 LM2 and 4T-1 tumors; experiment: Lung metastasis (metastatic index) in tumor-bearing mice; type: in vivo; conditions: mice bearing MDA231 LM2 shJAK2 or shNT tumors treated with BSK
Excerpt: as §1, with “4.” for “4. Tumor-bearing mice were randomized based on tumor volume prior to the initiation of treatment, which was initiated when average tumor volume was at least 100 mm^3.”
Immunohistochemistry. […] Mouse lungs were fixed in Bouin's fixative and visible metastatic lung nodules were counted using a binocular.

Compound: Cn1c(=O)n(-c2ccc(C(C)(C)C#N)cc2)c2c3cc(-c4cnc5ccccc5c4)ccc3ncc21 [COMPOUND A, 2-methyl-2-[4-(3-methyl-2-oxo-8-quinolin-3-yl-2,3-dihydro-imidazo[4,5-c]quinolin-1-yl)-phenyl]-propionitrile]
- pJAK2/JAK2 BEZ vs. DMSO (pJAK2/JAK2 [1]; BT474 cells): 0.95
- pJAK2/JAK2 BEZ vs. DMSO (pJAK2/JAK2 [1]; BT549 cells): 1.21
- pJAK2/JAK2 BEZ vs. DMSO (pJAK2/JAK2 [1]; HCC1937 cells): 1.62
- pJAK2/JAK2 BEZ vs. DMSO (pJAK2/JAK2 [1]; HCC1954 cells): 1.32
- pJAK2/JAK2 BEZ vs. DMSO (pJAK2/JAK2 [1]; Hs578t cells): 1.18
- pJAK2/JAK2 BEZ vs. DMSO (pJAK2/JAK2 [1]; MCF7 cells): 0.74
- pJAK2/JAK2 BEZ vs. DMSO (pJAK2/JAK2 [1]; MCF10A cells): 2.11
- pJAK2/JAK2 BEZ vs. DMSO (pJAK2/JAK2 [1]; MDA 231 LM2 cells): 2.18
- pJAK2/JAK2 BEZ vs. DMSO (pJAK2/JAK2 [1]; MDA 231 cells): 1.25
- pJAK2/JAK2 BEZ vs. DMSO (pJAK2/JAK2 [1]; MDA415 cells): 0.88
- pJAK2/JAK2 BEZ vs. DMSO (pJAK2/JAK2 [1]; MDA 436 cells): 1.53
- pJAK2/JAK2 BEZ vs. DMSO (pJAK2/JAK2 [1]; MDA 468 cells): 2.32
- pJAK2/JAK2 BEZ vs. DMSO (pJAK2/JAK2 [1]; SKBR3 cells): 0.65
- pJAK2/JAK2 BEZ vs. DMSO (pJAK2/JAK2 [1]; SUM159 cells): 0.92
- pJAK2/JAK2 BEZ vs. DMSO (pJAK2/JAK2 [1]; T47D cells): 1.05
- pJAK2/JAK2 BEZ vs. DMSO (pJAK2/JAK2 [1]; ZR75-1 cells): 1.36
- pJAK2/JAK2 BEZ vs. DMSO (pJAK2/JAK2 [2]; 4T-1 cells): 2.02
- pJAK2/JAK2 BEZ vs. DMSO (pJAK2/JAK2 [2]; 168FARN cells): 1.74
- pSTAT5/STAT5 BEZ vs. DMSO (pSTAT5/STAT5 [3]; BT474 cells): 1.02
- pSTAT5/STAT5 BEZ vs. DMSO (pSTAT5/STAT5 [3]; BT549 cells): 1.61
- pSTAT5/STAT5 BEZ vs. DMSO (pSTAT5/STAT5 [3]; HCC1937 cells): 1.66
- pSTAT5/STAT5 BEZ vs. DMSO (pSTAT5/STAT5 [3]; HCC1954 cells): 1.05
- pSTAT5/STAT5 BEZ vs. DMSO (pSTAT5/STAT5 [3]; Hs578t cells): 0.96
- pSTAT5/STAT5 BEZ vs. DMSO (pSTAT5/STAT5 [3]; MCF7 cells): 0.92
- pSTAT5/STAT5 BEZ vs. DMSO (pSTAT5/STAT5 [3]; MCF10A cells): 3.21
- pSTAT5/STAT5 BEZ vs. DMSO (pSTAT5/STAT5 [3]; MDA 231 LM2 cells): 2.32
- pSTAT5/STAT5 BEZ vs. DMSO (pSTAT5/STAT5 [3]; MDA 231 cells): 1.58
- pSTAT5/STAT5 BEZ vs. DMSO (pSTAT5/STAT5 [3]; MDA 436 cells): 1.77
- pSTAT5/STAT5 BEZ vs. DMSO (pSTAT5/STAT5 [3]; MDA 468 cells): 2.11
- pSTAT5/STAT5 BEZ vs. DMSO (pSTAT5/STAT5 [3]; SKBR3 cells): 0.82
- pSTAT5/STAT5 BEZ vs. DMSO (pSTAT5/STAT5 [3]; SUM159 cells): 1.09
- pSTAT5/STAT5 BEZ vs. DMSO (pSTAT5/STAT5 [3]; T47D cells): 0.62
- pSTAT5/STAT5 BEZ vs. DMSO (pSTAT5/STAT5 [3]; ZR75-1 cells): 1.62
- pSTAT5/STAT5 BEZ vs. DMSO (pSTAT5/STAT5 [4]; 4T-1 cells): 2.65
- pSTAT5/STAT5 BEZ vs. DMSO (pSTAT5/STAT5 [4]; 168FARN cells): 1.9
- IL-8 secretion in breast cancer (IL-8 secretion; breast cancer cells): induces
- IL8 BEZ vs. DMSO (IL-8 secretion; BT474 cells): 0.99
- IL8 BEZ vs. DMSO (IL-8 secretion; BT549 cells): 1.42
- IL8 BEZ vs. DMSO (IL-8 secretion; HCC1937 cells): 1.06
- IL8 BEZ vs. DMSO (IL-8 secretion; HCC1954 cells): 1.22
- IL8 BEZ vs. DMSO (IL-8 secretion; Hs578t cells): 1.08
- IL8 BEZ vs. DMSO (IL-8 secretion; MCF7 cells): 0.81
- IL8 BEZ vs. DMSO (IL-8 secretion; MCF10A cells): 1.23
- IL8 BEZ vs. DMSO (IL-8 secretion; MDA 231 LM2 cells): 2.04
- IL8 BEZ vs. DMSO (IL-8 secretion; MDA 231 cells): 1.41
- IL8 BEZ vs. DMSO (IL-8 secretion; MDA415 cells): 0.91
- IL8 BEZ vs. DMSO (IL-8 secretion; MDA 436 cells): 1.41
- IL8 BEZ vs. DMSO (IL-8 secretion; MDA 468 cells): 1.91
- IL8 BEZ vs. DMSO (IL-8 secretion; SKBR3 cells): 1.01
- IL8 BEZ vs. DMSO (IL-8 secretion; SUM159 cells): 1.24
- IL8 BEZ vs. DMSO (IL-8 secretion; T47D cells): 0.71
- IL8 BEZ vs. DMSO (IL-8 secretion; ZR75-1 cells): 1.55
- pAKT levels (pAKT, pS6): reduced
- pS6 levels (pAKT, pS6): completely blocked
- Pattern of JAK2/STAT5 activation (pJAK2, pSTAT5, pSTAT3; 300 nM BEZ): biphasic activation
- Levels of pSTAT3 (pJAK2, pSTAT5, pSTAT3; BEZ treatment): largely unaffected
- pJAK2 and pSTAT5 (JAK2/STAT5 activation) in vitro (pJAK2, pSTAT5, pSTAT3): activates
- pJAK2 and pSTAT5 (JAK2/STAT5 activation) in vitro (pJAK2, pSTAT5, pSTAT3; listed as BEZ): considerable upregulation
- pJAK2 and pSTAT5 (JAK2/STAT5 activation) in vivo (pJAK2, pSTAT5): activates
- pJAK2 and pSTAT5 (JAK2/STAT5 activation) in vivo (pJAK2, pSTAT5; listed as BEZ): considerable upregulation
- IL-8 secretion in vivo (tumors and plasma) (IL-8): enhanced
- JAK2/STAT5 and IL-8 secretion in human primary triple-negative breast tumors [5]: activates

Compound: Nc1cc(C(F)(F)F)c(-c2cc(N3CCOCC3)nc(N3CCOCC3)n2)cn1 [COMPOUND C, 5-(2,6-di-morpholin-4-yl-pyrimidin-4-yl)-4-trifluoromethyl-pyridin-2-ylamine]
- Start of JAK2 activation (pJAK2/pSTAT5 upregulation) after adding the compound (pJAK2, pSTAT5, pSTAT3): 8 hours

Compound: Fc1cc(-c2cccc3ncc(-c4cnn(C5CCNCC5)c4)nc23)cc(F)c1CN1CCOCC1 [COMPOUND D, 8-(3,5-Difluoro-4-morpholin-4-ylmethyl-phenyl)-2-(1-piperidin-4-yl-1H-pyrazol-4-yl)-quinoxaline]
- Upregulation of pSTAT5 by BEZ (pJAK2, pSTAT5, pSTAT3; JAK2 inhibition added to BEZ treatment, MDA 468 cells, 8 h BEZ): counteracted
- Metastasis (metastatic index), BSK alone [6]: reduces
- IL-8 secretion in vivo (tumors and plasma) (IL-8): reduced

Compound: CO[C@H]1C[C@@H]2CC[C@@H](C)[C@@](O)(O2)C(=O)C(=O)N2CCCC[C@H]2C(=O)O[C@H]([C@H](C)C[C@@H]2CC[C@@H](OCCO)[C@H](OC)C2)CC(=O)[C@H](C)/C=C(\C)[C@@H](O)[C@@H](OC)C(=O)[C@H](C)C[C@H](C)/C=C/C=C/C=C/1C [RAD001, everolimus, reference compound]
- Start of JAK2 activation (pJAK2/pSTAT5 upregulation) after adding the compound (pJAK2, pSTAT5, pSTAT3): 4 hours
